# Data as given in patent US7049289B1, “Labelled glutamine and lysine analogues” (Amersham PLC, priority 1998, dated 2006).
# “Also recorded” adds a separate entry of the source. Where no end group is shown, it is not given here. code Z = not defined here
# How the values were obtained:
# [1] = biological target: T1, fibrin (in vitro human plasma clot) (Homo sapiens, UniProt P02671+P02675+P02679); assay: Incorporation into human plasma clots in vitro; assay type: biochemical; conditions: for % specific uptake: % retained (with thrombin) - % retained (no thrombin); for % retained (no thrombin): control without thrombin and calcium chloride (non-specific binding); for % retained (with thrombin): human plasma clot, 60 minutes, ca. 20° C.
# T1 construct: about 400 μl of human plasma containing the radiolabelled substrate; from tissue; host or cells: human plasma, clotted in vitro with added thrombin and calcium chloride
# T1 sequence (P02671 20-644 isoform P02671-2 limits assumed): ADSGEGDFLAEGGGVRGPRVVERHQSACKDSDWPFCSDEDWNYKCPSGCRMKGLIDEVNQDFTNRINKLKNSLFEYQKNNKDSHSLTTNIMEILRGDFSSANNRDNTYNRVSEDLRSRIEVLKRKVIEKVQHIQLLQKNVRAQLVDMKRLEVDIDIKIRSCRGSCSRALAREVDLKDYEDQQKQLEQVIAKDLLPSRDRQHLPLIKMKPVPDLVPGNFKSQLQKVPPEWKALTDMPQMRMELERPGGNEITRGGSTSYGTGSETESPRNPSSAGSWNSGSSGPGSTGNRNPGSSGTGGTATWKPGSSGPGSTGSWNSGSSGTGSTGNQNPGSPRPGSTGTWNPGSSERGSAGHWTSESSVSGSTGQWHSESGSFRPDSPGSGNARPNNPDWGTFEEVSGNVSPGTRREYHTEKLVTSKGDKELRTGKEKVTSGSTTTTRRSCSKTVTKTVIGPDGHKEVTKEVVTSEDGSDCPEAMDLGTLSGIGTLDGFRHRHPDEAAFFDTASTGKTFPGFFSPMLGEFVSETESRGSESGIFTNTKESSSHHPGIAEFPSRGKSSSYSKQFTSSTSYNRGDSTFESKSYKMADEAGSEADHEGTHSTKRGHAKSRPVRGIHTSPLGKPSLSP
# T1 sequence (P02675 45-491 limits assumed): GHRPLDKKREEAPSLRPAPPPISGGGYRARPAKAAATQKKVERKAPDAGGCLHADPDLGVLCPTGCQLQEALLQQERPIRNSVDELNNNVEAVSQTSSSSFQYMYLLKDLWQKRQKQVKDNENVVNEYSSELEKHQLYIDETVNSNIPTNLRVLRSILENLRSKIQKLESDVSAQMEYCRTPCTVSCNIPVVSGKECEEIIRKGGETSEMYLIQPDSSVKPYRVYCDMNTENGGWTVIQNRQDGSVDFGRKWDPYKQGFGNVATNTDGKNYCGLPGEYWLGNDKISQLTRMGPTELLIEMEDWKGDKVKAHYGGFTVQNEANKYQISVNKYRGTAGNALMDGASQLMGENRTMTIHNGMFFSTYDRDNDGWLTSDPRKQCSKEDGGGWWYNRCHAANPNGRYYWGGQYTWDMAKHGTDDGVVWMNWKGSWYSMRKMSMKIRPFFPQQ
# T1 sequence (P02679 27-437 isoform P02679-2 limits assumed): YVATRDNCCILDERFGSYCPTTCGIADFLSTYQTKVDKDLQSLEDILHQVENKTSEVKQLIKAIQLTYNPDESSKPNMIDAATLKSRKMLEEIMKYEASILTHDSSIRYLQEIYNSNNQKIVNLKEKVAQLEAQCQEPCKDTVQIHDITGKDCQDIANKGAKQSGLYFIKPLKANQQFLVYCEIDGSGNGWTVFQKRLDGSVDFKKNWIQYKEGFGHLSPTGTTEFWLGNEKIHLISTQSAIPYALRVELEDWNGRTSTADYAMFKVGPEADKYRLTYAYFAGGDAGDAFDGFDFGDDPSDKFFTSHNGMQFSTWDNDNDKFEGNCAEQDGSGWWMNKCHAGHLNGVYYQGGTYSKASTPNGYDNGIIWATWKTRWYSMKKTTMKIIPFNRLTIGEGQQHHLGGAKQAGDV
# Description: Incorporation of radiolabelled substrates into fibrin was investigated by induction of an in vitro human plasma clot in the following manner. To a siliconised 5 ml glass vial was added, (a) 800 μl of Tris(hydroxymethyl)aminomethane buffered saline pH 7.5 containing calcium chloride (50 mM Tris, 150 mM sodium chloride, 4 mM calcium chloride.), (b) about 40 μl of physiological salt solution containing 100 units of thrombin per ml, (c) about 400 μl of human plasma containing the radiolabelled substrate at a concentration of typically 10 kBq/ml. To aid induction of clot a roughened glass rod was added to the reaction vial. Control vials were prepared similarly but with the omission of thrombin and calcium chloride.
# After incubation of the test solution at ambient laboratory temperature (ca. 20° C.) for 60 minutes the reaction was discontinued with the addition of about 400 μl of a cold solution of 33.5 mM ethylenediaminetetra-acetic acid disodium salt. Clots were separated from serum by vacuum filtration onto […] nitrocellulose filters (pre-soaked in 1.5% BSA/tris(hydroxymethyl)aminoethae buffered saline pH 7.5 containing 0.1% Tween 20) and washed with about 2×10 ml of tris(hydroxymethyl)aminomethane buffered saline pH 7.5 containing Tween 20 to a final concentration of 0.1% v/v. The proportion of total radioactivity was calculated by counting in suitable detection apparatus.
# The fraction of radioactivity retained on the filter, after subtraction of the non-specific binding determined from the control, is a measure of incorporation into the filtered clots.
# [2] = Incorporation into clots induced in a rat model (rat inferior vena cava model); assay type: in vivo, rat (Male Wistar); conditions: for % id/g (clot) / Rel. Conc. (cpm/g of clot by dose/g animal): sacrificed after 60 min
# Description: The rats (Male Wistar, 250–350 g) were anaesthetised with 15% urethane. After laparotomy, the vena cava was isolated and freed of surrounding fat tissue. […] The compounds were injected 5 min (fresh clot) and 60 min (aged clot) post-induction. After 60 min the animals were sacrificed and the clot removed, weighed and counted. Other tissues e.g. blood, lung, heart, were also dissected and counted. The uptake of tracer into the clot was determined as the relative concentration (cpm/g of clot by dose/g animal) and clot to background tissue.
# [3] = Aged Clots: injected 60 min post-induction
# [4] = Fresh Clots: injected 5 min post-induction
Substance,% specific uptake [1],% retained (no thrombin) [1],% retained (with thrombin) [1],Clot/blood ([2]; Aged Clots),Clot/heart ([2]; Aged Clots),Clot/liver ([2]; Aged Clots),Clot/lung ([2]; Aged Clots),"% id/g (clot) [2, 3]","Rel. Conc. (cpm/g of clot by dose/g animal) [2, 3]",Clot/blood ([2]; Fresh Clots),Clot/heart ([2]; Fresh Clots),Clot/liver ([2]; Fresh Clots),Clot/lung ([2]; Fresh Clots),"% id/g (clot) [2, 4]","Rel. Conc. (cpm/g of clot by dose/g animal) [2, 4]",in vitro clot uptake (in words) [1]
(CF3)2(C6H3)-NQEQVSPYTLLKG-Pn216 ({(CF3)2(C6H3)}-NQEQVSPYTLLKG-Pn216; also: 99mTc complex) [^99mTc-Cmpd 10],65.7%,0.2%,65.9%,6,16,5,6,2.9 ± 1.4 % id/g,6.3 ± 2.7,4,10,5,5,2.9 ± 0.5 % id/g,6.5 ± 1.2,
Ac-(D-N)QEQVSP(D-Y)TLL(D-K)G-Pn216 [^99mTc-Cmpd 32],19.8%,0.4%,20.2%,3,43,21,15,0.7 ± 0.1 % id/g,2.0 ± 0.4,10,26,27,11,1.7 ± 0.7 % id/g,4.6 ± 1.9,
Ac-GQDPVKG-Pn216 (also: 99mTc complex) [^99mTc-Cmpd 48],10.5%,0.1%,10.6%,1,32,26,109,0.2 ± 0.04 % id/g,0.8 ± 0.2,0.6,2,3,0.9,0.3 ± 0.2 % id/g,1.0 ± 0.5,significant reduction in uptake
Ac-LEFDTQSKNILG-Pn216 (also: 99mTc complex) [^99mTc-Cmpd 47],49.8%,0.1%,49.9%,1,46,44,24,0.5 ± 0.3 % id/g,1.5 ± 0.8,0.8,3,1,1,0.8 ± 0.7 % id/g,2.2 ± 2.0,
Ac-LGPGQSKVIG-Pn44 (also: 99mTc complex) [^99mTc-Cmpd 45],28.6%,0.1%,28.7%,8,11,3,5,2.0 ± 0.8 % id/g,5.7 ± 2.3,6,10,3,5,2.0 ± 0.5 % id/g,5.5 ± 1.3,
Ac-NAEAVSPYTLLKG-Pn216 (also: 99mTc complex) [^99mTc-Cmpd 14],2.8%,0.5%,3.3%,1.4,2,0.7,1.3,0.6 ± 0.4 % id/g,1.4 ± 0.8,2,3,0.7,1.5,0.5 ± 0.1 % id/g,1.2 ± 0.2,significant reduction in uptake; also recorded: large drop in uptake
Ac-NQEAVSPYTLLKG-Pn216 (also: 99mTc complex) [^99mTc-Cmpd 13],56.8%,0.2%,57.0%,6,29,19,9,4.5 ± 1.5 % id/g,10.4 ± 3.0,7,18,18,8,3.4 ± 0.7 % id/g,7.9 ± 1.6,
Ac-NQEQ(D-V)(D-S)(D-P)(D-Y)(D-T)(D-L)(D-L)(D-K)G-Pn44 [^99mTc-Cmpd 35],15.3%,0.6%,15.9%,1,1,2,0.5,0.6 ± 0.1 % id/g,1.5 ± 0.4,2,4,2,2,1.2 ± 0.2 % id/g,3.7 ± 0.8,
Ac-NQEQV(D-S)P(D-Y)TLL(D-K)G-Pn216 [^99mTc-Cmpd 30],14.7%,0.2%,14.9%,,,,,,,,,,,,,
Ac-NQEQVSPYTLLKG-(PEG)3.4k-Pn44 (Ac-NQEQVSPYTLLKG-{PEG 3.4k-Pn44}; also: 99mTc complex) [^99mTc-Cmpd 40],13.2%,0.1%,13.3%,,,,,,,,,,,,,
NQEQVSPYTLLKG-Pn216 (also: 99mTc complex) [^99mTc-Cmpd 6],64.3%,4.3%,68.6%,,,,,,,,,,,,,
Z-NQEQVSP(I2-Y)TLLKG-Pn216 [^99mTc-Cmpd 25],63.7%,4.3%,68.0%,,,,,,,,,,,,,
"Z-NQEQVSPYG-Pn216 ({code Z}-NQEQVSPYG-Pn216; reading uncertain; also: 99mTc complex, printed as Z-NQEQVSPYG-Pn216) [^99mTc-Cmpd 18]",9.7%,0.1%,9.8%,,,,,,,,,,,,,significant reduction in uptake
